Test results as given in PMC3433420 (PLoS ONE, 2012).
Residues, ends and D or L forms follow the SMILES beside them.

Tests used:
Assay in all cases: In-house protein microarrays (with or without 5 mM DTT), protein named per line
Type in all cases: binding
[1] = target: T1, SH2 and PTB domains (Homo sapiens, UniProt P46108); settings: protein CRK; PM assay replicate # 39307; array fabrication # 39286
T1 construct: thioredoxin; made in house; host or cells: BL21(DE3)pLysS E. coli
Procedure, shortened: (§1)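 KD values come from rhodamine fluorescence of duplicate spots after subtraction of a thioredoxin control. Domains were printed at ~40 µM on aldehyde slides, blocked 1 h at room temperature in pH 7.8 HEPES/KCl buffer with 5 mM DTT and 1% BSA, then peptide-probed.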

[2] = target: T2, SH2 and PTB domains (Homo sapiens, UniProt Q13322); settings: protein GRB10; PM assay replicate # 39307; array fabrication # 39286
T2 construct: thioredoxin; made in house; host or cells: BL21(DE3)pLysS E. coli
T2 sequence (Q13322 whole entry, the tested form may be a part): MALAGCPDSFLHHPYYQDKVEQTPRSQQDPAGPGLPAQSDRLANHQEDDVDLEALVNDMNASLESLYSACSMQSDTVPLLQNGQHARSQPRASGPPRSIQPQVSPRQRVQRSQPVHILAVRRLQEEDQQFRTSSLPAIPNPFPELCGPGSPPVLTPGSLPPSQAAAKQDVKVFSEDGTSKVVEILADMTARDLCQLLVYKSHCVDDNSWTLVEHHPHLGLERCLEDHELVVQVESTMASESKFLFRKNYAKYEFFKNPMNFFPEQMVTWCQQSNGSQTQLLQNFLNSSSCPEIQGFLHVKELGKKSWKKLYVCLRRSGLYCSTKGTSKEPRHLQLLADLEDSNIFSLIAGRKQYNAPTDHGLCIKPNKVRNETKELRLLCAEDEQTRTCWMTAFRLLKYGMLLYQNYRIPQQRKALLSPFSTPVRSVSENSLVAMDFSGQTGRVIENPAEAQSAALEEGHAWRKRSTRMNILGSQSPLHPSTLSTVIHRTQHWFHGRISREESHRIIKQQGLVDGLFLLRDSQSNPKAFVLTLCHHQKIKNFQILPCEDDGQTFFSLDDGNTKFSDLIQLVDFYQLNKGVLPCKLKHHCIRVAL
Procedure, shortened: as §1

[3] = target: T3, SH2 and PTB domains (Homo sapiens, UniProt Q8WV28); settings: protein BLNK; PM assay replicate # 39307; array fabrication # 39286
T3 construct: thioredoxin; made in house; host or cells: BL21(DE3)pLysS E. coli
T3 sequence (Q8WV28 whole entry, the tested form may be a part): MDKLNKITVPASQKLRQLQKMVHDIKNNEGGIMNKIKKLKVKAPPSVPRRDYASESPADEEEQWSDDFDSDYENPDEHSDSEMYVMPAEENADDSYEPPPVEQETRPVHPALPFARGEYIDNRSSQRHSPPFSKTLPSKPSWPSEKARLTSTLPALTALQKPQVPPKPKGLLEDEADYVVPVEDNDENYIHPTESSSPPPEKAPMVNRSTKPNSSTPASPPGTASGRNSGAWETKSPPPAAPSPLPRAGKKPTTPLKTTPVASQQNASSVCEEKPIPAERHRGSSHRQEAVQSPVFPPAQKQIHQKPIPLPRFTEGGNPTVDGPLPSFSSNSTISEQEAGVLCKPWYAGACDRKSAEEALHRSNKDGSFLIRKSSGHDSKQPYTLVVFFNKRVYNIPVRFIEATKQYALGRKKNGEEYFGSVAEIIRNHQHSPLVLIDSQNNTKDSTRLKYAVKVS
Procedure, shortened: as §1

T1 sequence (P46108 whole entry, the tested form may be a part): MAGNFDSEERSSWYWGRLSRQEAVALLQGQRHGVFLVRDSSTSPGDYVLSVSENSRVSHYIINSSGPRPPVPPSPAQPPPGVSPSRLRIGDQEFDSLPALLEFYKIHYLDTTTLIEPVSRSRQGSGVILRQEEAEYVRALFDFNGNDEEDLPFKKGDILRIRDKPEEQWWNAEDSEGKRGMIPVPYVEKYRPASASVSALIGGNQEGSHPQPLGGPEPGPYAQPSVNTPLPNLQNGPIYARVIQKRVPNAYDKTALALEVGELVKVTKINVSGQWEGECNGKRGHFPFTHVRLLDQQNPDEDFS

## CC[C@H](C)[C@H](NC(=O)[C@H](CC(N)=O)NC(=O)[C@H](CC(N)=O)NC(=O)[C@H](CCCCN)NC(=O)[C@H](CC(C)C)NC(=O)[C@H](Cc1ccc(OP(=O)(O)O)cc1)NC(=O)[C@H](CCC(=O)O)NC(=O)[C@H](C)NC(=O)[C@H](CCCCN)NC(=O)CNC(=O)[C@H](CC(C)C)NC(=O)[C@@H](NC(=O)[C@H](CC(N)=O)NC(=O)[C@H](C)NC(=O)[C@@H](N)Cc1ccccc1)[C@@H](C)O)C(=O)N[C@@H](CC(C)C)C(=O)N[C@@H](CO)C(=O)N[C@@H](CC(=O)O)C(=O)O [ErbB4 pY1221 (18-mer)] (HELM PEPTIDE1{F.A.N.T.L.G.K.A.E.[O=C([C@H](Cc1ccc(OP(=O)(O)O)cc1)N[*:1])[*:2]].L.K.N.N.I.L.S.D}$$$$V2.0)
[1]
  Kd: 64.54 µM
[2]
  Kd: 0.23 µM
[3]
  Kd: 4.00 µM
